Measurements reported in patent publication US20080070960A1, “Novel 3-Aryl-1,2-Benzisoxazole Derivatives and Use Thereof as Medicinal Products Against Cancer” (AVENTIS PHARMA S.A., priority 2005, published 2008).
pIC50: −log10 of the molar value. Read-outs that look alike come from different tables or passages of the source.

Target: Hsp82 (Saccharomyces cerevisiae, UniProt P02829)
Experiment: Hsp82 ATPase activity inhibition (malachite green inorganic phosphate method, or PK/LDH coupled method)
Format: biochemical
Procedure: The inorganic phosphate released during the hydrolysis of ATP by the ATPase activity of Hsp82 is quantified by the malachite green method. In the presence of this reagent, formation of the inorganic phosphate-molybdate-malachite green complex occurs, which complex absorbs at a wavelength of 620 nm.
The products to be evaluated are incubated in a reaction volume of 30 μl, in the presence of 1 μM Hsp82 and of 250 μM of substrate (ATP) in a buffer composed of 50 mM Hepes-NaOH (pH 7.5), 1 mM DTT, 5 mM MgCl2 and 50 mM KCl at 37° C. for 60 min. In parallel, a range of inorganic phosphate of between 1 and 40 μM is prepared in the same buffer. The ATPase activity is subsequently visualized by the addition of 60 μl of the biomol green reagent (Tebu). After incubation at ambient temperature for 20 min, the absorbance of the various wells is measured using a microplate reader at 620 nm. The concentration of inorganic phosphate of each sample is then calculated from the standard curve. The ATPase activity of Hsp82 is expressed as concentration of inorganic phosphate produced in 60 min. The effect of the various products tested is expressed as percentage inhibition of the ATPase activity.
The formation of ADP due to the ATPase activity of Hsp82 was used to develop another method for evaluating the enzymatic activity of this enzyme by application of an enzymatic coupling system involving pyruvate kinase (PK) and lactate dehydrogensase (LDH). In this kinetic-type spectrophotometric method, the PK catalyses the formation of ATP and of pyruvate from phosphoenol pyruvate (PEP) and from the ADP produced by Hsp82. The pyruvate formed, which is a substrate for LDH, is subsequently converted into lactate in the presence of NADH. In this case, the decrease in NADH concentration, measured by the decrease in absorbance at the wavelength of 340 nm, is proportional to the concentration of ADP produced by Hsp82.
The products tested are incubated in a reaction volume of 100 μl of buffer composed of 100 mM Hepes-NaOH (pH 7.5), 5 mM MgCl2, 1 mM DTT, 150 mM KCl, 0.3 mM NADH, 2.5 mM PEP and 250 μM ATP. This mixture is preincubated at 37° C. for 30 min before the addition of 3.77 units of LDH and 3.77 units of PK. The reaction is initiated by the addition of the product to be evaluated, at varying concentrations, and of Hsp82, at a concentration of 1 μM. The enzymatic activity of Hsp82 is then measured, continuously, in a microplate reader, at 37° C., at the wavelength of 340 nm. The initial rate of the reaction is obtained by measuring the slope of the tangent at the origin of the curve recorded. The enzymatic activity is expressed in μM of ADP formed per minute. The effect of the various products tested is expressed as percentage inhibition of the ATPase activity.

[1] = inhibition of ATPase activity of Hsp82, 1 μM Hsp82, 250 μM ATP, 37° C., read-out: IC50

Hsp82, sequence (P02829 whole entry): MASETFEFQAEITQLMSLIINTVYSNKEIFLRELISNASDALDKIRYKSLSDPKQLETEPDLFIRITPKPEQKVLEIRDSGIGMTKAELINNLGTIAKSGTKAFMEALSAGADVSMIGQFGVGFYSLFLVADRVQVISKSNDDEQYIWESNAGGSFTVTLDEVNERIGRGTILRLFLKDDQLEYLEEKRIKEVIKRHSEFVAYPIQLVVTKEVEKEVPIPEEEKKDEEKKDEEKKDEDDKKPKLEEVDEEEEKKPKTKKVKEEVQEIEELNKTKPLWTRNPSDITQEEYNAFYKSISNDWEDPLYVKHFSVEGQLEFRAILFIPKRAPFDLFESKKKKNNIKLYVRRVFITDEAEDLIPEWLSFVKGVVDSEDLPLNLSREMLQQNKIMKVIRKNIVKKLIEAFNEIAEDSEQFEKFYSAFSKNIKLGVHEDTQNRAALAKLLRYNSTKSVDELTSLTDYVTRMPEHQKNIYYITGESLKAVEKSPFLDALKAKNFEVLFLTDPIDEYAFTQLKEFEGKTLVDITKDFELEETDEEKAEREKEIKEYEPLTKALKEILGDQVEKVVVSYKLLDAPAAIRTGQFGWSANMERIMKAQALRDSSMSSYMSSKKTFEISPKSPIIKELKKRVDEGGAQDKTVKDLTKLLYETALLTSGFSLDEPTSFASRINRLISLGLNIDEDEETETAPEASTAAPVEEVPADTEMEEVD

Structure (SMILES) | pIC50 [1] | pIC50
Oc1cc(O)c(-c2noc3ccccc23)cc1CCc1ccccc1 [Example 7, 4-(1,2-Benzisoxazol-3-yl)-6-(2-phenylethyl)benzene-1,3-diol] | 5.00 to 6.00 | 
Oc1cc(O)c(-c2noc3ccccc23)cc1CNc1ccccc1 [Example 8, 4-(1,2-Benzisoxazol-3-yl)-6-(phenylamino)methylbenzene-1,3-diol] | 5.00 to 6.00 | 
Oc1cc(O)c(-c2noc3ccccc23)cc1/C=N/c1ccc(Cl)c(Cl)c1 [Example 12, 4-(1,2-benzisoxazol-3-yl)-6-(3,4-dichlorophenyl)iminomethylbenzene-1,3-diol] | 5.00 to 6.00 | 
CCc1cc(-c2noc3ccccc23)c(O)cc1O [Example 6, 4-(1,2-Benzisoxazol-3-yl)-6-ethylbenzene-1,3-diol] | 5.00 to 6.00 | 
O=C(Cc1ccccc1)c1cc(-c2noc3ccccc23)c(O)cc1O [Example 5] | 4.00 to 5.00 | 
COc1cc(O)c(-c2noc3ccccc23)cc1CNc1ccc(C)c(C)c1 [Example 10, 2-(1,2-benzisoxazol-3-yl)-4-(3,4-dimethylphenylamino)methyl-5-methoxyphenol] | 4.00 to 5.00 | 
Oc1cc(O)c(-c2noc3ccccc23)cc1CNc1ccc(Cl)c(Cl)c1 [Example 11, 4-(1,2-Benzisoxazol-3-yl)-6-(3,4-dichlorophenylamino)methylbenzene-1,3-diol] | 5.00 to 6.00 | 
O=C(NCc1ccccc1)c1cc(-c2noc3ccccc23)c(O)cc1O [Example 4, N1-Phenylmethyl-5-(1,2-benzisoxazol-3-yl)-2,4-dihydroxybenzenecarboxamide] | 4.00 to 5.00 | 
Cc1ccc(NCc2cc(-c3noc4ccccc34)c(O)cc2O)cc1C [Example 9, 4-(1,2-Benzisoxazol-3-yl)-6-(3,4-dimethylphenylamino)methylbenzene-1,3-diol] | > 6.00 | 
Oc1cc(O)c(-c2noc3ccccc23)cc1Br [Example 2, 4-(1,2-Benzisoxazol-3-yl)-6-bromobenzene-1,3-diol] | 5.00 to 6.00 | 
COC(=O)c1cc(-c2noc3ccccc23)c(O)cc1O [Example 3, 5-(1,2-Benzisoxazol-3-yl)-2,4-dihydroxybenzenecarboxylic acid methyl ester] | 4.00 to 5.00 | 
Oc1ccc(-c2noc3ccccc23)c(O)c1 [Example 1, 4-(1,2-Benzisoxazol-3-yl)benzene-1,3-diol] |  | 5.00 to 6.00
